Measurements: patent EP4786484A1, “CYCLIC PEPTIDE COMPOUND AND USE THEREOF” (Shenzhen Zhongge Biological Technology Co., Ltd., priority 2023, dated 2026)
Several values for one entry are separate records, joined by “and”; a condition that tells them apart may be missing. Identical values can stand only once. Residues, ends and D or L forms follow the SMILES beside them.

Columns and labels:
[1] = tested on: Fibroblasts of human origin; assay: Fibroblast cytotoxicity test (MTT); format: cell-based; settings: Positive control 10% DMSO, 24 h, 1440 min
Protocol: A. Fibroblast cytotoxicity test
Test materials: Fibroblasts of human origin (Guangdong Boxi Biotechnology Co., Ltd., Lot No. Fb20081902), DMEM culture medium (Gibco, 23042301, expiration date on 230522), PBS (Solarbio, P1010), MTT (Sigma, M5655), DMSO (Sigma, D4540-1L), CO2 incubator (Thermo, 150I), super-clean bench (AIRTECH, SW-CJ-1F), inverted microscope (Olympus, CKX53).
Test methods: • 1) Cell inoculation: After cell resuscitation, the cells were inoculated into 96-well plates when the plating rate reached around 60%, and were incubated overnight in an incubator (37°C, 5% CO2). • 2) Test grouping: The blank group, solvent control group, positive control group, and sample group were set for the test. In the sample group, 7 concentration gradients were set for each sample and 3 duplicate wells were set for each concentration gradient. • 3) Formulation of solutions: Sample working solutions at different concentrations were formulated based on the test concentrations of 0.0781 µM, 0.1563 µM, 0.3125 µM, 0.625 µM, 1.25 µM, 2.5 µM, and 5 µM. • 4) Administration: Administration was performed when the cell plating rate in the 96-well plates reached 50% to 60%. 200 µL of culture medium per well was added for the solvent control group; 200 µL of culture medium containing 10% DMSO per well was added for the positive control group; 200 µL of culture medium containing the sample at a corresponding concentration per well was added for the sample group; The blank group had no cell inoculation, for which only 200 µL of cell culture medium was added. After the administration was complete, the 96-well plates were incubated in an incubator (37°C, 5% CO2) for 24 h. • 5) Detection: After 24 h of cell incubation and culture, the supernatant was discarded, and MTT working solution (0.5 mg/mL) was added. Incubation was performed at 37°C for 4 h in the dark. After the incubation was completed, the supernatant was discarded and 150 µL DMSO was added to each well. The OD value was read at 490 nm. • 6) Calculation of relative viability of cells: Calculation was performed according to the formula below: Relative viability of cells = (Sample well OD−Blank well OD)/(Solvent control well OD−Blank well OD) × 100%. [formula]

hyaluronic acid (HA) = assay: Hyaluronic acid (HA) elevation effect in fibroblasts (ELISA); format: cell-based, human; design: HA elevation effect in the fibroblasts: unit not given here; settings: 1 µM, 24 h; for HA elevation effect in the fibroblasts: ELISA, Blank control (BC) 1402.44; for hyaluronic acid (HA) content compared to the BC: result in words
Excerpt: (§1) B. Collagen I (type I collagen) elevation effect in fibroblasts, hyaluronic acid (HA) elevation effect in fibroblasts, and elastin (ELN) elevation effect in fibroblasts
(§2) Test materials: Fibroblasts of human origin (Guangdong Boxi Biotechnology Co., Ltd., Lot No. Fb20081902), DMEM culture medium (Gibco, 23042301, expiration date 230522), PBS (Solarbio, P1010), TGF-β1 (Peprotech, 230504), Collagen I ELISA Kit (Cusabio, B21025824), Elastin ELISA kit (Abcam, GR3446070-2), HA ELISA kit (RD, P325066). CO2 incubator (Thermo, 1501), super-clean bench (AIRTECH, SW-CJ-1F), microplate reader (BioTek, Epoch).
(§3) Test methods: • 1) Inoculation: After cell resuscitation, the cells were inoculated into 6-well plates when the plating rate reached around 60%, and were incubated overnight in an incubator (37°C, 5% CO2). • 2) Formulation of solutions: The cyclic peptide compounds in the sample group, PC2 (Biotinoyl-GHK, [drawing 2] ) and PC3 [drawing 3] in the positive reference group were all at the concentration of 1 µM, and the test substance working solutions were formulated. Only the cell culture medium was added for the blank control group (BC). • 3) Administration: When the cell plating rate in the 6-well plates reached 40% to 60%, administration was performed at 2 mL per well. 3 duplicate wells were set for each group. Incubation was performed in an incubator (37°C, 5% CO2) for 24 h. • 4) ELISA assay: The ELISA assay was performed according to the instructions of the ELISA kit, with the detection indicators being Collagen I elevation effect in the fibroblasts, HA elevation effect in the fibroblasts, and elastin elevation effect in the fibroblasts.

elastin (ELN) = assay: Elastin (ELN) elevation effect in fibroblasts (ELISA); format: cell-based, human; design: Elastin elevation effect in the fibroblasts: unit not given here; settings: 1 µM, 24 h; for Elastin elevation effect in the fibroblasts: ELISA, Blank control (BC) 756.52; for elastin content compared to the BC: result in words
Excerpt: as §1, §2, §3

[2] = tested on: Collagen I (type I collagen); assay: Collagen I elevation effect in fibroblasts (ELISA); format: cell-based, human; design: Collagen I elevation effect in the fibroblasts: unit not given here; settings: 1 µM, 24 h; for Collagen I elevation effect in the fibroblasts: ELISA, Blank control (BC) 35.6; for type I collagen (Collagen I) content compared to the BC: result in words
Excerpt: as §1, §2, §3

Row | SMILES | Relative viability of cells [1] | HA elevation effect in the fibroblasts (hyaluronic acid (HA)) | hyaluronic acid (HA) content compared to the BC (hyaluronic acid (HA)) | Elastin elevation effect in the fibroblasts (elastin (ELN)) | elastin content compared to the BC (elastin (ELN)) | Collagen I elevation effect in the fibroblasts [2] | type I collagen (Collagen I) content compared to the BC [2]
1 | C[S+](C)[O-] [10% DMSO, DMSO] | 0.30% and 1.87% and 1.62% and 1.17% and 0.61% and 2.07% and 0.54% and 0.43% |  |  |  |  |  | 
2 | C[C@@H]1NC(=O)[C@H](CCCCN)NC(=O)[C@H](Cc2c[nH]cn2)NC(=O)CNC(=O)[C@@H]2CCCN2C(=O)[C@H](Cc2ccccc2)NC1=O [compound 52] (cyclo(AFPGHK)) |  | 2900.83 | significant increase | 1043.27 | significant increase |  | 
3 | CC[C@H](C)[C@@H]1NC(=O)[C@H](CCCCN)NC(=O)[C@H](Cc2c[nH]cn2)NC(=O)CNC(=O)[C@@H]2CCCN2C(=O)[C@H](CC(C)C)NC1=O [compound 196] (cyclo(GHKILP)) |  | 2305.13 | significant increase | 1175.6 | significant increase |  | 
4 | CC[C@H](C)[C@@H]1NC(=O)[C@H](CCCCN)NC(=O)[C@H](Cc2c[nH]cn2)NC(=O)CNC(=O)[C@@H]2CCCN2C(=O)[C@H](CCSC)NC1=O [compound 205] (cyclo(GHKIMP)) |  | 2641.21 | significant increase | 1074.17 | significant increase | 49.25 | significant increase
5 | CC[C@H](C)[C@@H]1NC(=O)[C@H](CCCCN)NC(=O)[C@H](Cc2c[nH]cn2)NC(=O)CNC(=O)[C@@H]2CCCN2C(=O)[C@H](Cc2ccccc2)NC1=O [compound 214] (cyclo(FPGHKI)) |  | 1965.3 | significant increase | 1050.82 | significant increase | 42.51 | significant increase
6 | CC[C@H](C)[C@@H]1NC(=O)[C@H](CCCCN)NC(=O)[C@H](Cc2c[nH]cn2)NC(=O)CNC(=O)[C@@H]2CCCN2C(=O)[C@H](Cc2c[nH]c3ccccc23)NC1=O [compound 232] (cyclo(GHKIWP)) |  |  |  | 1001.84 | significant increase | 67.93 | significant increase
7 | CC(C)C[C@@H]1NC(=O)[C@H](CCCCN)NC(=O)[C@H](Cc2c[nH]cn2)NC(=O)CNC(=O)[C@@H]2CCCN2C(=O)[C@H](C)NC1=O [compound 250] (cyclo(APGHKL)) |  | 2142.56 | significant increase | 1051.64 | significant increase | 55.85 | significant increase
8 | CC[C@H](C)[C@@H]1NC(=O)[C@H](CC(C)C)NC(=O)[C@H](CCCCN)NC(=O)[C@H](Cc2c[nH]cn2)NC(=O)CNC(=O)[C@@H]2CCCN2C1=O [compound 268] (cyclo(GHKLIP)) |  |  |  |  |  | 61.46 | significant increase
9 | CC(C)C[C@@H]1NC(=O)[C@H](CCCCN)NC(=O)[C@H](Cc2c[nH]cn2)NC(=O)CNC(=O)[C@H](C)NC(=O)[C@H](Cc2ccccc2)NC1=O [compound 289] (cyclo(AGHKLF)) |  | 1978.48 | significant increase | 1034.59 | significant increase | 41 | significant increase
10 | CC[C@H](C)[C@@H]1NC(=O)[C@H](Cc2ccccc2)NC(=O)[C@H](CC(C)C)NC(=O)[C@H](CCCCN)NC(=O)[C@H](Cc2c[nH]cn2)NC(=O)CNC1=O [compound 291] (cyclo(FIGHKL)) |  | 2477.91 | significant increase | 1177.19 | significant increase |  | 
11 | CC(C)C[C@@H]1NC(=O)[C@H](CCCCN)NC(=O)[C@H](Cc2c[nH]cn2)NC(=O)CNC(=O)[C@H](C(C)C)NC(=O)[C@H](Cc2ccccc2)NC1=O [compound 297] (cyclo(FVGHKL)) |  | 2212.6 | significant increase | 923.52 | significant increase | 52.28 | significant increase
12 | CSCC[C@@H]1NC(=O)[C@H](CCCCN)NC(=O)[C@H](Cc2c[nH]cn2)NC(=O)CNC(=O)[C@@H]2CCCN2C(=O)CNC1=O [compound 340] (cyclo(GHKMGP)) |  |  |  | 1304.87 | significant increase | 90.07 | significant increase
13 | CC(C)[C@@H]1NC(=O)[C@H](C)NC(=O)[C@H](Cc2ccccc2)NC(=O)[C@H](CCCCN)NC(=O)[C@H](Cc2c[nH]cn2)NC(=O)CNC1=O [compound 414] (cyclo(AVGHKF)) |  | 1926.61 | significant increase | 1124.58 | significant increase | 40.54 | significant increase
14 | CSCC[C@@H]1NC(=O)[C@@H]2CCCN2C(=O)[C@H](C(C)C)NC(=O)[C@H](CCCCN)NC(=O)[C@H](Cc2c[nH]cn2)NC(=O)CNC1=O [compound 707] (cyclo(GHKVPM)) |  |  |  |  |  | 66.21 | significant increase
15 | CC(C)[C@@H]1NC(=O)[C@H](CCCCN)NC(=O)[C@H](Cc2c[nH]cn2)NC(=O)CNC(=O)[C@H](Cc2c[nH]c3ccccc23)NC(=O)[C@@H]2CCCN2C1=O [compound 710] (cyclo(GHKVPW)) |  |  |  | 1207.29 | significant increase | 110.87 | significant increase
